Measurements published in ChEMBL document CHEMBL2169851, “Imidazopyridazinones as novel PDE7 inhibitors: SAR and in vivo studies in Parkinson's disease model” (Bioorg Med Chem Lett, 2012).
The source made the active and inactive calls. The rule behind the calls is not given here.

How the values were obtained:
[1] = target: T1, High affinity 3',5'-cyclic-AMP phosphodiesterase 7A (Homo sapiens, UniProt Q13946); experiment: Inhibition of cloned human recombinant PDE7A assessed as [3H]cAMP hydrolysis by radiometric assay
[2] = target: T1, High affinity 3',5'-cyclic-AMP phosphodiesterase 7A; experiment: Inhibition of cloned human recombinant PDE7A assessed as [3H]cAMP hydrolysis at 1 uM by radiometric assay
[3] = test system: Mus musculus; experiment: Antiparkinsonian activity in C57BL/6 mouse assessed as decrease in MPTP-induced vertical rearing behavior impairment at 15 mg/kg, sc administered 30 mins on day 7 post MPTP challenge; assay type: functional, organism-based; parameters: dose 15 mg/kg
[4] = test system: Mus musculus; experiment: Neurotoxicity in C57BL/6 mouse assessed as haloperidol-induced deffect in motor coordination at 3 mg/kg, ip administered 15 mins prior to haloperidol challenge measured at 0.5 to 1 hr post haloperidol challenge; assay type: toxicity, organism-based; parameters: dose 3 mg/kg, route intraperitoneal; settings: in vivo
[5] = test system: Mus musculus; experiment: Neurotoxicity in C57BL/6 mouse assessed as potentiation of haloperidol-induced catalepsy at 1 to 10 mg/kg, ip administered 15 mins prior to haloperidol challenge measured at 0.5 to 1 hr post haloperidol challenge; assay type: toxicity, organism-based; parameters: route intraperitoneal; settings: in vivo
[6] = test system: Mus musculus; experiment: Neurotoxicity in C57BL/6 mouse assessed as induction of catalepsy at 1 to 10 mg/kg, ip measured at 0.5 to 1 hr; assay type: toxicity, organism-based; parameters: route intraperitoneal; settings: in vivo
[7] = test system: Mus musculus; experiment: Neurotoxicity in C57BL/6 mouse assessed as induction of catalepsy at 30 mg/kg, ip measured at 0.5 to 1 hr; assay type: toxicity, organism-based; parameters: dose 30 mg/kg, route intraperitoneal; settings: in vivo
[8] = test system: Mus musculus; experiment: Antiparkinsonian activity in C57BL/6 mouse assessed as decrease in MPTP-induced rearing behavior impairment at 30 mg/kg, ip administered 15 mins on day 7 post MPTP challenge; assay type: functional, organism-based; parameters: dose 30 mg/kg
[9] = target: T2, High affinity 3',5'-cyclic-AMP phosphodiesterase 7A (Mus musculus, UniProt P70453); experiment: Inhibition of mouse PDE7A assessed as [3H]cAMP hydrolysis after 5 to 15 mins by scintillation counter
T2 sequence (P70453 whole entry): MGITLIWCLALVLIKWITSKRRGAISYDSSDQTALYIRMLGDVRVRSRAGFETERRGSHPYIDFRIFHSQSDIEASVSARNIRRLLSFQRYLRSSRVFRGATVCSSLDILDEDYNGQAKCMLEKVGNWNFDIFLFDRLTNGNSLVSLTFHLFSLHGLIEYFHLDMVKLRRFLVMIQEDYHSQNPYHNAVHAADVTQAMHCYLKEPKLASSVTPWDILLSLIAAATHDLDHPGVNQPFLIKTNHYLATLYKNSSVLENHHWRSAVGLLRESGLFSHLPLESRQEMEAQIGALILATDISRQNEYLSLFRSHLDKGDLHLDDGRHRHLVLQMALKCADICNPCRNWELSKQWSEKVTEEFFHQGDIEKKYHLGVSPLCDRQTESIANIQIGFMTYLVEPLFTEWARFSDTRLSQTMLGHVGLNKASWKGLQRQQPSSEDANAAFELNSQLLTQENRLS

[10] = test system: Brain; experiment: Free drug level in C57 mouse brain homogenate at 10 mg/kg, ip; assay type: ADME, organism-based; parameters: dose 10 mg/kg, route intraperitoneal; settings: in vivo
[11] = test system: Brain; experiment: Free drug level in C57 mouse brain homogenate at 100 mg/kg, ip; assay type: ADME, organism-based; parameters: dose 100 mg/kg, route intraperitoneal; settings: in vivo
[12] = test system: Brain; experiment: Free drug level in C57 mouse brain homogenate at 30 mg/kg, ip; assay type: ADME, organism-based; parameters: dose 30 mg/kg, route intraperitoneal; settings: in vivo
[13] = Ratio of drug level in brain to plasma in C57 mouse at 30 mg/kg, ip after 30 mins; assay type: ADME, organism-based; parameters: dose 30 mg/kg, route intraperitoneal; settings: read-out: BPR
[14] = Ratio of drug level in brain to plasma in C57 mouse at 100 mg/kg, ip after 30 mins; assay type: ADME, organism-based; parameters: dose 100 mg/kg, route intraperitoneal; settings: read-out: BPR
[15] = Drug uptake in C57 mouse brain at 100 mg/kg, ip after 30 mins; assay type: ADME, organism-based; parameters: dose 100 mg/kg, route intraperitoneal; settings: read-out: Drug uptake
[16] = Plasma concentration in C57 mouse at 100 mg/kg, ip after 30 mins; assay type: ADME, organism-based; parameters: dose 100 mg/kg, route intraperitoneal
[17] = Drug uptake in C57 mouse brain at 30 mg/kg, ip after 30 mins; assay type: ADME, organism-based; parameters: dose 30 mg/kg, route intraperitoneal; settings: read-out: Drug uptake
[18] = Plasma concentration in C57 mouse at 30 mg/kg, ip after 30 mins; assay type: ADME, organism-based; parameters: dose 30 mg/kg, route intraperitoneal
[19] = Tmax in C57 mouse at 30 mg/kg, ip; assay type: ADME, organism-based; parameters: dose 30 mg/kg, route intraperitoneal; settings: in vivo
[20] = Tmax in C57 mouse at 100 mg/kg, ip; assay type: ADME, organism-based; parameters: dose 100 mg/kg, route intraperitoneal; settings: in vivo
[21] = AUC in C57 mouse at 30 mg/kg, ip; assay type: ADME, organism-based; parameters: dose 30 mg/kg, route intraperitoneal; settings: plasma
[22] = AUC in C57 mouse at 100 mg/kg, ip; assay type: ADME, organism-based; parameters: dose 100 mg/kg, route intraperitoneal; settings: plasma
[23] = Cmax in C57 mouse at 100 mg/kg, ip; assay type: ADME, organism-based; parameters: dose 100 mg/kg, route intraperitoneal; settings: in vivo
[24] = Cmax in C57 mouse at 30 mg/kg, ip; assay type: ADME, organism-based; parameters: dose 30 mg/kg, route intraperitoneal; settings: in vivo
[25] = test system: Brain; experiment: Free drug level in C57 mouse brain homogenate at 1 uM by high throughput dialysis method; assay type: ADME, tissue-based; settings: in vivo
[26] = Tmax in C57 mouse at 10 mg/kg, ip; assay type: ADME, organism-based; parameters: dose 10 mg/kg, route intraperitoneal; settings: in vivo
[27] = AUC in C57 mouse at 10 mg/kg, ip; assay type: ADME, organism-based; parameters: dose 10 mg/kg, route intraperitoneal; settings: plasma
[28] = Ratio of drug level in brain to plasma in C57 mouse at 10 mg/kg, ip after 30 mins; assay type: ADME, organism-based; parameters: dose 10 mg/kg, route intraperitoneal; settings: read-out: BPR
[29] = Cmax in C57 mouse at 10 mg/kg, ip; assay type: ADME, organism-based; parameters: dose 10 mg/kg, route intraperitoneal; settings: in vivo
[30] = Plasma concentration in C57 mouse at 10 mg/kg, ip after 30 mins; assay type: ADME, organism-based; parameters: dose 10 mg/kg, route intraperitoneal
[31] = Drug uptake in C57 mouse brain at 10 mg/kg, ip after 30 mins; assay type: ADME, organism-based; parameters: dose 10 mg/kg, route intraperitoneal; settings: read-out: Drug uptake
[32] = Metabolic stability in mouse liver microsomes assessed as compound remaining after 60 mins; assay type: ADME, Microsome; settings: read-out: Stability
[33] = Metabolic stability in rat liver microsomes assessed as compound remaining after 60 mins; assay type: ADME, Microsome; settings: read-out: Stability
[34] = organism: Homo sapiens; experiment: Selectivity ratio of IC50 for cloned human recombinant PDE4D to IC50 for cloned human recombinant PDE7B
[35] = Metabolic stability in human liver microsomes assessed as compound remaining after 60 mins; assay type: ADME, Microsome; settings: read-out: Stability
[36] = organism: Homo sapiens; experiment: Selectivity ratio of IC50 for cloned human recombinant PDE4D to IC50 for cloned human recombinant PDE7A
[37] = target: T3, 3',5'-cyclic-AMP phosphodiesterase 4D (Homo sapiens, UniProt Q08499); experiment: Inhibition of cloned human recombinant PDE4D assessed as [3H]cAMP hydrolysis by radiometric assay
[38] = target: Dual 3',5'-cyclic-AMP and -GMP phosphodiesterase 11A (Homo sapiens) (UniProt Q9HCR9); experiment: Inhibition of cloned human recombinant PDE11A assessed as [3H]cAMP hydrolysis at 10 uM by radiometric assay
[39] = target: cAMP and cAMP-inhibited cGMP 3',5'-cyclic phosphodiesterase 10A (Homo sapiens) (UniProt Q9Y233); experiment: Inhibition of cloned human recombinant PDE10A assessed as [3H]cAMP hydrolysis at 10 uM by radiometric assay
[40] = target: High affinity cGMP-specific 3',5'-cyclic phosphodiesterase 9A (Homo sapiens) (UniProt O76083); experiment: Inhibition of cloned human recombinant PDE9A2 assessed as [3H]cAMP hydrolysis at 10 uM by radiometric assay
[41] = target: High affinity cAMP-specific and IBMX-insensitive 3',5'-cyclic phosphodiesterase 8A (Homo sapiens) (UniProt O60658); experiment: Inhibition of cloned human recombinant PDE8A1 assessed as [3H]cAMP hydrolysis at 10 uM by radiometric assay
[42] = target: cGMP-specific 3',5'-cyclic phosphodiesterase (Homo sapiens) (UniProt O76074); experiment: Inhibition of cloned human recombinant PDE5A assessed as [3H]cAMP hydrolysis at 10 uM by radiometric assay
[43] = target: T3, 3',5'-cyclic-AMP phosphodiesterase 4D; experiment: Inhibition of cloned human recombinant PDE4D assessed as [3H]cAMP hydrolysis at 10 uM by radiometric assay
[44] = target: cGMP-inhibited 3',5'-cyclic phosphodiesterase 3A (Homo sapiens) (UniProt Q14432); experiment: Inhibition of cloned human recombinant PDE3A assessed as [3H]cAMP hydrolysis at 10 uM by radiometric assay
[45] = target: cGMP-dependent 3',5'-cyclic phosphodiesterase (Homo sapiens) (UniProt O00408); experiment: Inhibition of cloned human recombinant PDE2A assessed as [3H]cAMP hydrolysis at 10 uM by radiometric assay
[46] = target: Dual specificity calcium/calmodulin-dependent 3',5'-cyclic nucleotide phosphodiesterase 1A (Homo sapiens) (UniProt P54750); experiment: Inhibition of cloned human recombinant PDE1A assessed as [3H]cAMP hydrolysis at 10 uM by radiometric assay
[47] = target: 3',5'-cyclic-AMP phosphodiesterase 7B (Homo sapiens, UniProt Q9NP56); experiment: Inhibition of cloned human recombinant PDE7B assessed as [3H]cAMP hydrolysis by radiometric assay
3',5'-cyclic-AMP phosphodiesterase 7B, sequence (Q9NP56 whole entry): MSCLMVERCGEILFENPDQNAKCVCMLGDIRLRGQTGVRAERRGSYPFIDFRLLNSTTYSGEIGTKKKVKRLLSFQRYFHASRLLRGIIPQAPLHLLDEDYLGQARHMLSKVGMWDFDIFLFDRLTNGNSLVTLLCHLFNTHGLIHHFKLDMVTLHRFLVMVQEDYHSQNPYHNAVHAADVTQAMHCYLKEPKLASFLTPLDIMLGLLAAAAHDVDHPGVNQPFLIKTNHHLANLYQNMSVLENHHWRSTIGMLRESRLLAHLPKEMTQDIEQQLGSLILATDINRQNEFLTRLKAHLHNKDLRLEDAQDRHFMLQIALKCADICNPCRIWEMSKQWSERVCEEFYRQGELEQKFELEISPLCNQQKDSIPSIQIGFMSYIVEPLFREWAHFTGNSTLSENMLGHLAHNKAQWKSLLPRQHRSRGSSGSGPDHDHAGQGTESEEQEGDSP

T1 sequence (Q13946 whole entry): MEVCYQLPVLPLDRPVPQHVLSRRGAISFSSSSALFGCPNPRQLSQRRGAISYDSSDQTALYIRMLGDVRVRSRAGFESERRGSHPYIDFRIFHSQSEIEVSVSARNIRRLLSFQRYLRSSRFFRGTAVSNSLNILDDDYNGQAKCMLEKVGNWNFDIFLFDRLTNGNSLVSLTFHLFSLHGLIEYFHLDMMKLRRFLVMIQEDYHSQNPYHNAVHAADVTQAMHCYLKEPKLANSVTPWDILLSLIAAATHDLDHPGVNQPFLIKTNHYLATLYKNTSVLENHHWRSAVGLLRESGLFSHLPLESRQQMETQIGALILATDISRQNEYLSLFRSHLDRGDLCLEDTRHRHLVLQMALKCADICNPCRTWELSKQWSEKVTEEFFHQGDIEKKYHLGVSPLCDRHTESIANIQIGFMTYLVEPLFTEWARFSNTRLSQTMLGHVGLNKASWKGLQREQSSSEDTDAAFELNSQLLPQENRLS
T3 sequence (Q08499 whole entry): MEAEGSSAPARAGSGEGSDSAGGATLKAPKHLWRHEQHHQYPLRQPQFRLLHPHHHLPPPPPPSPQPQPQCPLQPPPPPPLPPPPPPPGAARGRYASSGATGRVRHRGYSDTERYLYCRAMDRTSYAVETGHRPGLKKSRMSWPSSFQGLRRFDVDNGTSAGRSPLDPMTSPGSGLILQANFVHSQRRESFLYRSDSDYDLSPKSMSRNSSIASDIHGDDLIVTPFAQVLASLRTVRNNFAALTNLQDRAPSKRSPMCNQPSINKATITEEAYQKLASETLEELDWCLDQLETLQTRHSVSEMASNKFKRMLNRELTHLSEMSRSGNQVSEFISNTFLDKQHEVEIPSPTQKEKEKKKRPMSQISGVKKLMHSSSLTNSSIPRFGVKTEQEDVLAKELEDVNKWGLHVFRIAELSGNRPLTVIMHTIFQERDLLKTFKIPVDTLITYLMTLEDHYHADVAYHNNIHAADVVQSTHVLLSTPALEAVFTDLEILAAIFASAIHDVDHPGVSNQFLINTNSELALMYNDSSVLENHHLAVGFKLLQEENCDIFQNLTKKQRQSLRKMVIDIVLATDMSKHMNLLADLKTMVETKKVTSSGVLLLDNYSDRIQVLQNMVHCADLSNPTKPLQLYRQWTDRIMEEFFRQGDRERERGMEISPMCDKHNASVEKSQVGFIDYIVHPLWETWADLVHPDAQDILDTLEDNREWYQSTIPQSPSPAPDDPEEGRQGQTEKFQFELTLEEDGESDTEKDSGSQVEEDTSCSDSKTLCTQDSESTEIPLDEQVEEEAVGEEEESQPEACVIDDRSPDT
Dual 3',5'-cyclic-AMP and -GMP phosphodiesterase 11A (Homo sapiens), sequence (Q9HCR9 whole entry, looked up): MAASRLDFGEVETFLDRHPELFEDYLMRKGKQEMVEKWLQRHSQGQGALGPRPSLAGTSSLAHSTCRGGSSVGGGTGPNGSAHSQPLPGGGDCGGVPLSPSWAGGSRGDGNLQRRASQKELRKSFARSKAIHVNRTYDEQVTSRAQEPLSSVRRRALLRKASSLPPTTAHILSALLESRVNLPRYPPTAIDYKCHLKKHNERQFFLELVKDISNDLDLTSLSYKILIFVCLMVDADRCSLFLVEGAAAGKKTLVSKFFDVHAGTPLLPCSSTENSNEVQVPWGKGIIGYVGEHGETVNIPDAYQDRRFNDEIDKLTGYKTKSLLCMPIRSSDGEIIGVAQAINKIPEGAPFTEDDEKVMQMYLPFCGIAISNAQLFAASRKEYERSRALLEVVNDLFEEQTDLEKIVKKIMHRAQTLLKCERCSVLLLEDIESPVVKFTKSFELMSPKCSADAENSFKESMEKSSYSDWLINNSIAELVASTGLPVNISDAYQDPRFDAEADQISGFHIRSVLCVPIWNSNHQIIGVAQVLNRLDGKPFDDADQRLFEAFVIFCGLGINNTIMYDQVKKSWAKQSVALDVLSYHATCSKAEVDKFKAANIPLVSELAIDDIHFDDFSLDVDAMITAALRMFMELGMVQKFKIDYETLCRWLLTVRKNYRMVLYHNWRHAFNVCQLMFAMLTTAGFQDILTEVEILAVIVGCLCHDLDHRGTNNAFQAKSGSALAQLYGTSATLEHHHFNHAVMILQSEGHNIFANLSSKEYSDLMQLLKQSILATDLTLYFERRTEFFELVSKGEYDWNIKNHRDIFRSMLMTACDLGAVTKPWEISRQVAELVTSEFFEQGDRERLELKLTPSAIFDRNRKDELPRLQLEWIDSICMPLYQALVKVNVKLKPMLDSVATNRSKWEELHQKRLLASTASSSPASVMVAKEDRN
Dual specificity calcium/calmodulin-dependent 3',5'-cyclic nucleotide phosphodiesterase 1A (Homo sapiens), sequence (P54750 whole entry): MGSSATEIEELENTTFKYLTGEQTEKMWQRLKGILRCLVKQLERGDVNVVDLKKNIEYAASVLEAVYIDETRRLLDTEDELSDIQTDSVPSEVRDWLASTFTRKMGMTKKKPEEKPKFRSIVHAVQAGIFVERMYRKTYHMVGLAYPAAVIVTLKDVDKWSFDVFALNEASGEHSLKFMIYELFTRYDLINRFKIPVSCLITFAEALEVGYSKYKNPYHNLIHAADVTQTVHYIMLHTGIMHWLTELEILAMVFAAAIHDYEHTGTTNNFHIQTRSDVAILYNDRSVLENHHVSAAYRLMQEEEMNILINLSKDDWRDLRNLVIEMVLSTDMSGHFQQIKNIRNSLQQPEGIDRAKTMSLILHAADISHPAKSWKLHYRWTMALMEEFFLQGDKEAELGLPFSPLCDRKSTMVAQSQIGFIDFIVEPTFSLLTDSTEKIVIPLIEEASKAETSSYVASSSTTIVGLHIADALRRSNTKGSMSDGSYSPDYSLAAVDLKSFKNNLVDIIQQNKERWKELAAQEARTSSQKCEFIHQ
cAMP and cAMP-inhibited cGMP 3',5'-cyclic phosphodiesterase 10A (Homo sapiens), sequence (Q9Y233 whole entry): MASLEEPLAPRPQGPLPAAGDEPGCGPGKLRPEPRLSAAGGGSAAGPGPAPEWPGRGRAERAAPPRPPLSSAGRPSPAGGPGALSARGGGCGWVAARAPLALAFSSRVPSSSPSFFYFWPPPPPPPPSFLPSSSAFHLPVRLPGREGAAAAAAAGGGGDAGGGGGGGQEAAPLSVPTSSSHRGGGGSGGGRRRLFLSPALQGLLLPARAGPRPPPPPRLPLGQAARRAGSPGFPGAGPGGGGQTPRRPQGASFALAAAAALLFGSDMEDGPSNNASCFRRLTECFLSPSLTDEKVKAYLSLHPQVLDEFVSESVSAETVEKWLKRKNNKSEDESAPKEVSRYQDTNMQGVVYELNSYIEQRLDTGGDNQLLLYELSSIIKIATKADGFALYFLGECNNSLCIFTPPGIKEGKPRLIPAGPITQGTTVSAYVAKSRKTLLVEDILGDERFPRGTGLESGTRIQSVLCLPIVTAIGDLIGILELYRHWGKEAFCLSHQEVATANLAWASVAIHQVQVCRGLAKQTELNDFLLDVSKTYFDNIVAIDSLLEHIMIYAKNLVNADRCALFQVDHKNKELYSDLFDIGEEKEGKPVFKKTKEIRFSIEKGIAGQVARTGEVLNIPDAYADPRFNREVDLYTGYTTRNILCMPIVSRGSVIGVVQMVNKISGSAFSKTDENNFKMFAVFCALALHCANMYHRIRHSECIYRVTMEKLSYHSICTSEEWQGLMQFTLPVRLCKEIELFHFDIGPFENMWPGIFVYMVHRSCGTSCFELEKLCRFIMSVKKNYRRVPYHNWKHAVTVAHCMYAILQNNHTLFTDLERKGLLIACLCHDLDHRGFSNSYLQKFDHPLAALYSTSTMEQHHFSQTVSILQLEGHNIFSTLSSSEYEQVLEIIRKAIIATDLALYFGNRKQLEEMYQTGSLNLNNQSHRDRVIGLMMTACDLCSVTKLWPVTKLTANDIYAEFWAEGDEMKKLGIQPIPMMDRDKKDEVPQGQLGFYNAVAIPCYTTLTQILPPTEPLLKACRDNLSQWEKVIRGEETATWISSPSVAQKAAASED
High affinity cGMP-specific 3',5'-cyclic phosphodiesterase 9A (Homo sapiens), sequence (O76083 whole entry): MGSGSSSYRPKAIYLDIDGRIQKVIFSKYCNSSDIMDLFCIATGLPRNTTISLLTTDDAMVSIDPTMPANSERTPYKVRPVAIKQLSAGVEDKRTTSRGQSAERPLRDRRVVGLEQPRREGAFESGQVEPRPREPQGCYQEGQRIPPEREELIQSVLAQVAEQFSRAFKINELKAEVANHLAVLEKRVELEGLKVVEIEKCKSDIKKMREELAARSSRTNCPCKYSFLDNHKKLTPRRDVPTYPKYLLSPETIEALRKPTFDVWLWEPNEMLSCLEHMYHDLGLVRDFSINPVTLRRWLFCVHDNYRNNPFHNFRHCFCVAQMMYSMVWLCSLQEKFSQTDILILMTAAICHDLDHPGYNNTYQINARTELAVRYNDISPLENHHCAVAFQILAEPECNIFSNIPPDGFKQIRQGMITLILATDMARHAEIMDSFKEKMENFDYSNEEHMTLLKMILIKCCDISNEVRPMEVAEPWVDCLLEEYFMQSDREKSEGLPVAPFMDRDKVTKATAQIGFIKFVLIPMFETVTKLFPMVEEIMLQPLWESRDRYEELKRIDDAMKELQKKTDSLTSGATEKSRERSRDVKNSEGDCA

SMILES: COc1cc(N2CC[C@H](N)C2)ccc1-c1nc2c(C)nn(C3CCCCC3)c(=O)c2[nH]1
- IC50 [1]: 80 nM

SMILES: COc1cc(/C=C/C(N)=O)ccc1-c1nc2c(C)nn(C3CCCCC3)c(=O)c2[nH]1
- IC50 [1]: 89 nM

SMILES: CCCCC(CC)Cn1nc(C)c2nc(-c3ccc(N4CCC(N)CC4)cc3OC)[nH]c2c1=O (centres undefined)
- inhibition [2]: 6%

SMILES: COc1cc(N2CC(N)C2)ccc1-c1nc2c(C)nn(C3CCCCC3)c(=O)c2[nH]1
- IC50 [1]: 73 nM

SMILES: CNC(=O)Nc1ccc(-c2nc3c(C)nn(C4CCCCC4)c(=O)c3[nH]2)c(OC)c1
- IC50 [1]: 24 nM

SMILES: COc1cc(O[C@@H]2CCNC2)ccc1-c1nc2c(C)nn(C3CCCCC3)c(=O)c2[nH]1
- IC50 [1]: 55 nM

SMILES: COc1cc(N2CCCC(O)CC2)ccc1-c1nc2c(C)nn(C3CCCCC3)c(=O)c2[nH]1 (centres undefined)
- IC50 [1]: 33 nM

SMILES: COc1cc(CCC(N)=O)ccc1-c1nc2c(C)nn(C3CCCCC3)c(=O)c2[nH]1
- IC50 [1]: 93 nM

SMILES: COc1cc(N2CCC(N)CC2)ccc1-c1nc2c(C)nn(C3CCCCCC3)c(=O)c2[nH]1
- inhibition [2]: 92%
- IC50 [1]: 75 nM

SMILES: COc1cc(C2CC2C(N)=O)ccc1-c1nc2c(C)nn(C3CCCCC3)c(=O)c2[nH]1 (centres undefined)
- IC50 [1]: 3 nM

SMILES: COc1cc(N2CCC(O)CC2)ccc1-c1nc2c(C)nn(C3CCCCC3)c(=O)c2[nH]1
- IC50 [1]: 81 nM

SMILES: N[C@@H](Cc1ccc(O)c(O)c1)C(=O)O
- Activity [3]: Active

SMILES: COc1cc(N)ccc1-c1nc2c(C)nn(C3CCCCC3)c(=O)c2[nH]1
- Activity [4]: Toxic
- Activity [5]: Toxic
- Activity [6]: Non-toxic
- Activity [7]: Toxic
- Activity [8]: inactive
- IC50 [9]: 63 nM
- Drug uptake(free) [10]: 6 nM
- Drug uptake(free) [11]: 763 nM
- Drug uptake(free) [12]: 91 nM
- Kp at 0.5 h [13]: 3.43
- Kp at 0.5 h [14]: 3.05
- concentration at 0.5 h [15]: 135000 ng/g
- concentration at 0.5 h [16]: 44200 ng/mL
- concentration at 0.5 h [17]: 16000 ng/g
- concentration at 0.5 h [18]: 4680 ng/mL
- Tmax [19]: 15 min
- Tmax [20]: 30 min
- AUC [21]: 5020 ng·h/mL
- AUC [22]: 168000 ng·h/mL
- Cmax [23]: 44200 ng/mL
- Cmax [24]: 6350 ng/mL
- Drug uptake(free) [25]: 0.2%
- Tmax [26]: 15 min
- AUC [27]: 792 ng·h/mL
- Kp at 0.5 h [28]: 1.69
- Cmax [29]: 1480 ng/mL
- concentration at 0.5 h [30]: 699 ng/mL
- concentration at 0.5 h [31]: 1140 ng/g
- remaining at 1 h [32]: 4%
- remaining at 1 h [33]: 68%
- Ratio IC50 [34]: > 150
- remaining at 1 h [35]: 43%
- Ratio IC50 [36]: > 200
- IC50 [37]: 6550 nM
- inhibition [38]: 10%
- inhibition [39]: 23%
- inhibition [40]: 9%
- inhibition [41]: 0%
- inhibition [42]: 3%
- inhibition [43]: 86%
- inhibition [44]: 6%
- inhibition [45]: 29%
- inhibition [46]: 37%
- IC50 [47]: 43 nM
- IC50 [1]: 31 nM

SMILES: COc1cc(N2CCNCC2)ccc1-c1nc2c(C)nn(C3CCCCC3)c(=O)c2[nH]1
- IC50 [1]: 104 nM
